{Fluor} = fluorophore: 5-carboxyfluorescein (FAM) or Alexa Fluor 488
Columns and labels:
SK-N-DZ = assay: Stimulation of macropinocytosis (dextran uptake); type: cell-based; conditions: Cancer, neuroblastoma
Excerpt: (§1) It has recently been discovered that AS1411 can stimulate macropinocytosis (MP) in cancer cells and this finding was verified by several different methods and in multiple cancer cell lines (Table 1).

CHO = assay: Stimulation of macropinocytosis (dextran uptake); type: cell-based; conditions: Non-cancer, hamster ovary
Excerpt: as §1

A549 = assay: Stimulation of macropinocytosis (dextran uptake); type: cell-based; conditions: Cancer, non-small cell lung
Excerpt: as §1

U937 leukemia cells = assay: Cell death mechanism (DNA laddering, immunoblotting, electron microscopy); type: cell-based
Experimental: (A) Trypan blue staining of U937 leukemia cells showing percentage of dead cells (trypan blue positive) over time. (B) U937 cells were untreated (Un) or treated with 1 μM AS1411 (1411) or control oligonucleotide (Ctrl) for 72 h. DNA was extracted, electrophoresed on an agarose gel and stained with ethidium bromide to probe DNA laddering. As a positive control, […] were treated with UV irradiation to induce apoptosis as previously described. […] (D) U937 cells treated as described for panel B, followed by protein extraction and immunoblotting (IB) to detect PARP cleavage and Caspase-3 activation. (E) DU145 prostate cancer cells were incubated with 10 μM of AS1411 for 24 h, or irradiated with UV (300 J/m^2 with UV Stratalinker 2400, Strategene), then cultured in fresh medium for 6 h. Assessment of cell death was carried out by flow cytometry to detect Annexin V-FITC binding and PI staining.

Hs27 = assay: Uptake of AS1411 by macropinocytosis (MP); type: cell-based, human; conditions: Non-cancer, skin fibroblasts
Experimental: FIG. 2 are graphs showing that AS1411 is internalized by different endocytic mechanisms in DU145 cancer cells and in non-malignant Hs27 cells. DU145 or Hs27 cells were plated 18 h before uptake analysis. Cells were pre-treated as described with inhibitor (gray histogram) or the corresponding vehicle control (black histogram) before addition of 10 μM FL-AS1411 and incubation at 37° C. for 2 h. After incubation, cells were harvested and analyzed by flow cytometry. Pre-treatment conditions were at 37° C. with: (Panel A) 5 μM Cytochalasin D for 30 min; (Panel B) 80 μM Dynasore for 30 min; or (Panel C) 3 mM amiloride for 1 h. All experiments were repeated at least three times and representative data are shown. Solid gray histograms represent background autofluorescence of unstained cells.
To analyze uptake of the oligodeoxynucleotides or dextran-10K (macropinocytic marker) by flow cytometry, 2×10^5 cells in fresh supplemented culture medium (2.5 ml) were plated into 6-well plates for 18 h. After complete adhesion, the cells were incubated with 5′-FAM tagged oligodeoxynucleotides or Alexa Fluor 488 tagged dextran-10K and incubated as indicated in the Description of the Drawings. Cells were washed once with ice-cold PBS, incubated with 1 μg/ml 7-amino-actinomycin D (7-AAD) for 5 min on ice or 1 μg/ml propidium iodide (PI), and washed twice with ice-cold PBS. […]

Cells = assay: Antiproliferative MTT assay (FIG. 7); type: cell-based
Experimental: FIG. 7 are graphs showing the results of comparative experiments. (Panel A) Cells were plated in 96-well plates at low density (1,000 cells per well) and incubated 18 hrs at 37° C. to allow adherence. Cells were treated by addition of different concentrations of AS1411 (obtained from Antisoma), AS1411 (obtained from Invitrogen), tAS1411, FL-AS1411, CRO, or tCRO directly to the medium, and proliferation was measured using a 3-(4,5-dimethylthiazol-2-yl)-2,5-diphenyltetrazolium bromide assay as described previously (Bates et al., 1999, J. Biol. Chem., 274:26369-77). Points represent mean of triplicate samples with SE. (Panel B) 10 μM FL-AS1411 or 10 μM FL-CRO were added to DU145 cells plated on 6-well plates. After incubation at 37° C. for 2 hrs, cells were washed twice with ice-cold PBS and harvested by trypsin treatment. Some cells were washed twice with ice-cold PBS containing dextran sulfate ([…]) or trypan blue ([…], pH 4.4). Cells were resuspended in ice-cold PBS and immediately analyzed by flow cytometry.
Oligodeoxynucleotides were purchased from Invitrogen (Carlsbad, Calif.). […]

Row | Substance | Stimulate MP? (SK-N-DZ) | Stimulate MP? (CHO) | Stimulate MP? (A549) | effect on DNA replication and cell division (U937 leukemia cells) | effect on protein synthesis (U937 leukemia cells) | induction of apoptosis markers (U937 leukemia cells; 1 μM, 72 h, UV irradiation as positive control) | cell death morphology in electron micrographs (U937 leukemia cells; 72 h) | Update by MP? (Hs27) | antiproliferative activity (Cells)
1 | 5′-d(GGTGGTGGTGGTTGTGGTGGTGGTGG) [AS1411] | Yes | No | Yes | inhibited DNA replication and cell division | not inhibited | does not induce DNA laddering, PARP cleavage, or Caspase-3 activation | necrosis-like cell death | No | –
2 | 5′-Fluor-d(TTTCCTCCTCCTCCTTCTCCTCCTCCTCC) (DNA TTTCCTCCTCCTCCTTCTCCTCCTCCTCC; DNA, 5' {Fluor}, backbone and methylation of C not given here) [FL-CRO, reference compound] | – | – | – | – | – | – | – | – | no antiproliferative activity

— patent US20130065227A1, “METHODS OF INCREASING MACROPINOCYTOSIS IN CANCER CELLS” (priority 2010, published 2013)
